In one assay the target is human orexin 2 receptor (Homo sapiens (Human), UniProt O43614). The assay is described as follows: Human orexin 2 receptor radioligand binding ([3H]-EMPA competition). The note with it: HEK293 stably expressing human orexin 2 receptor; 2 nM [3H]-EMPA; averages of 2-20 runs; read-out: hOX2 Ki. An outline of the steps: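 Membranes-free whole HEK293 cells stably expressing human OX2 receptor incubated with [3H]-EMPA and compound (7 concentrations, 0.1 nM–10 μM, ≤0.1% DMSO) for 60 min at room temperature; nonspecific binding with 10 μM almorexant. Filtration and scintillation counting; one-site IC50 converted to Ki using predetermined Kd, triplicates averaged over 2-20 runs.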

For the next assay, the target named is human orexin 1 receptor (Homo sapiens (Human), UniProt O43613). The assay is described as follows: Human orexin 1 receptor radioligand binding (competitive). The note with it: CHO cells stably expressing human orexin 1 receptor; 4 nM radioligand; averages of 2-20 runs; read-out: hOX1 Ki. Summed up: (§1)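 Competition binding used HEK293 cells expressing rat OX1 or CHO cells expressing human OX1, with 4 nM final [3H]-labelled thiazolyl-oxadiazolyl-pyrrolidinyl methanone radioligand in PBS. Compounds were tested at 7 concentrations (0.1 nM–10 μM) for 60 min at room temperature, then filtered; 10 μM almorexant defined nonspecific binding. Ki was derived from the one-site IC50 and the radioligand Kd.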

The next assay concerns the target rat orexin 1 receptor (Rattus norvegicus, UniProt P56718). The assay is described as follows: Rat orexin 1 receptor radioligand binding (competitive). As to conditions: HEK293 cells stably expressing rat orexin 1 receptor; 4 nM radioligand; averages of 2-20 runs; read-out: rOX1 Ki. An outline of the steps:
as §1

pKi: −log10 of the molar value.

Sequence of human orexin 2 receptor (O43614 whole entry): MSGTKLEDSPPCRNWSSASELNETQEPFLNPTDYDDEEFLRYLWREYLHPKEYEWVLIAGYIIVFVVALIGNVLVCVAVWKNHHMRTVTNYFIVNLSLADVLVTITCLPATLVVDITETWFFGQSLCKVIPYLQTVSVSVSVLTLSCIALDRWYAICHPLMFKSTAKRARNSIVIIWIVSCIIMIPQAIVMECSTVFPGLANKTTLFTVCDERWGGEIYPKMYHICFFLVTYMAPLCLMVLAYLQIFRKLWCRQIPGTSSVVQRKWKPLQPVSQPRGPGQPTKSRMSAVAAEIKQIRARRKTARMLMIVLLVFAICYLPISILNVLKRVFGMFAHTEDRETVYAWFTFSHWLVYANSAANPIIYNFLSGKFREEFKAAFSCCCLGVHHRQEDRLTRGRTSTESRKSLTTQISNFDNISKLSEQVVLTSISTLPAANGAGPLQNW
Sequence of human orexin 1 receptor (O43613 whole entry): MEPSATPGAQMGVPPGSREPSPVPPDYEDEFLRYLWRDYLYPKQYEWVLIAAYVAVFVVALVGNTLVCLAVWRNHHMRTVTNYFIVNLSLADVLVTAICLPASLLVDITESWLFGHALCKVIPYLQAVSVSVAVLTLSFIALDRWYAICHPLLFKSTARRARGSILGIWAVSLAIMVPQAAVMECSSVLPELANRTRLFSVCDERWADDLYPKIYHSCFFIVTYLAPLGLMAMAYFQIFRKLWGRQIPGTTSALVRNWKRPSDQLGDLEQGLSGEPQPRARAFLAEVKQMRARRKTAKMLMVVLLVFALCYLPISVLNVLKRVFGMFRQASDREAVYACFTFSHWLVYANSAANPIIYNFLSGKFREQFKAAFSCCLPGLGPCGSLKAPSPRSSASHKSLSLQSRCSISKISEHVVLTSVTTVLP

Consider `[2H]C1([2H])[C@H]2C[C@@H]([C@@H]1Oc1ccc(C(F)(F)F)cn1)N(C(=O)c1cccc(F)c1-n1nccn1)[C@@H]2C` [Example 199, [(1R,3R,4S,6R)-2,2-dideuterio-6-methyl-3-[[5-(trifluoromethyl)-2-pyridyl]oxy]-5-azabicyclo[2.2.1]heptan-5-yl]-[3-fluoro-2-(triazol-2-yl)phenyl]methanone], for which the pKi on human orexin 2 receptor was 6.25; on human orexin 1 receptor it was 8.30; at rat orexin 1 receptor, 8.30.

Values taken from patent US9611262B2, “Substituted 2-azabicycles and their use as orexin receptor modulators” (JANSSEN PHARMACEUTICA NV, priority 2014, dated 2017).
